Experimental data from US12358963B2, “Regenerative polypeptides and uses thereof” (Juvena Therapeutics, Inc., priority 2019, dated 2025).

What was measured:
Format in all cases: cell-based
Mouse myoblasts = experiment: Mouse myoblast fusion index with sodium butyrate; conditions: 48h, vehicle 7.56
Procedure: Mouse myoblasts were treated with PBS or sodium butyrate at concentrations 0.1 nM, 1 nM, and 10 nM. Myoblasts were cultured for 48 hours, with fresh media added every 24 hours. Cells were pulsed for 2-5 hours with EdU (30 uM), ethanol fixed, stained with Hoescht 3342, immunostained for proliferation—as measured by the percent of cells staining positive for EdU (% EdU)—, and immunostained for differentiation—as measured by the increase in cellular area staining positive for embryonic myosin heavy chain (% eMyHC) relative to the negative controls, which received media and vehicle only. […] Significance was determined by a p-value less than 0.05 by the one-way ANOVA Tukey Honest Significant Difference test.
FIG. 2A: Bar graph of fusion index in response to sodium butyrate (NaBut) compared to vehicle. Myoblast were cultured 48h in the presence of NaBut at indicated dose. Fresh media and NaBut were added every 24h. Mean∓S.D. Table quantitation of fusion index and p-values also shown. (*p<0.05 by Student's Two-tailed T-test, n=3-5)

human myoblast cells [1] = experiment: Human myoblast differentiation, % area eMyHC (IGF2, sodium butyrate); conditions: 96h, vehicle 6.813
Procedure: Fresh media was added every 24 hours. […] The total area of eMyHc positive cells was analyzed, and treated cells were compared to cells treated with the vehicle alone. […] Myoblast were cultured 96h in the presence of BMP7 at indicated dose. Fresh media and BMP7 was added every 24h. Mean∓S.D. (*p<0.05 by One-Way Anova Tukey Honest Significant Difference, n=2-12) […] Fresh media was added every 24 hours. […] FIG. 3A: Bar graph of % Area eMyHC+ age human myoblast (person) in response to indicated treatment compared to Vehicle (vehicle). Myoblast were cultured 96h in the presence of factors at indicated dose. Fresh media and factors were added every 24h. Mean∓S.D. Significant p-values (Vehicle IGF2: 0.03 ug/mL: 1.42E-08, Vehicle NaBut: 1 nM IGF2: 0.03 ug/mL: 1.79E-11, Vehicle NaBut: 10 nM IGF2: 0.03 ug/mL: 1.80E-11, Vehicle NaBut: 100 nM IGF2: 0.03 ug/mL: 1.79E-11). […] Myoblast were cultured 96h in the presence of BMP7 at indicated dose. Mean±S.D. Significant p-values (IGF2 NaBut: 1 nM IGF2: 0.03 ug/mL: 1.88E-3, Vehicle NaBut: 10 nM IGF2: 0.03 ug/mL: 4.80E-3, Vehicle NaBut: 100 nM IGF2: 0.03 ug/mL: 1.87E-3) (*p<0.05 by One-Way ANOVA Tukey Honest Significant Difference, n=2-12)

DM1 human myoblast = experiment: Gene expression fold change in DM1 human myoblast; conditions: 48h; BMP7 50 ng/mL, Butyrate 100 nM, IGF2 200 ng/mL; FM 1.000
human myoblast cells [2] = experiment: Human myoblast differentiation, percentage area of MyHC; conditions: Example 3, purified, 96 hours with daily media change; vehicle control 1.384
Procedure: (§1) FIG. 1A: The suspension CHO cells were transiently transfected with the IGF2-hFcm encoding plasmid. IGF2-hFcm was affinity-purified by Protein A membrane column. The purified IGF2-hFcm was added into the culture of human myoblast cells for 96 hours. Myosin heavy chain (MyHC) was immunostained and imaged by a fluorescence microscope.
as §1, with “The” for “FIG. 1A: The”, “IGF2-LhFc4” for “IGF2-hFcm”, “hours with daily media change.” for “hours.”
The suspension CHO cells were transiently transfected with the HSA-L-IGF2R61A encoding plasmid. HSA-L-IGF2R61A was affinity-purified by Protein A membrane column. […] Myosin heavy chain (MyHC) was immunostained and imaged by a fluorescence microscope.
Suspension CHO cells were transiently transfected with the IGF2-hFcm encoding plasmid. […] After quantification of the stained MyHC, the percentage area of MyHC was calculated as the percent of pixels within the field that are illuminated above background in the stained channel. […] Significance was determined by a p-value less than 0.05 by the one-way ANOVA Tukey Honest Significant Difference test.

mouse myoblast cells = experiment: Mouse myoblast proliferation assay (EdU); conditions: for % EdU: vehicle 3.14
Procedure: FIG. 5A) Bar graph quantitation of % EdU+ mouse myoblast in response to BMP7. Myoblast were cultured 48h in the presence of BMP7 at indicated dose. Fresh media and BMP7 was added every 24h, followed by 2 hour EdU pulse and fixation. Mean∓S.D. Significant p-values (Vehicle˜BMP7 0.025 ug/mL: 1.21E-07, Vehicle˜BMP7 0.075 ug/mL: 8.05E-07, Vehicle˜BMP7 0.2255 ug/mL: 3.37E-03, Vehicle˜BMP7 0.9 ug/mL: 4.99E-02). FIG. 5B) Bar graph quantitation of % EdU+ human myoblast (person) in response to BMP7. Myoblast were cultured 72h in the presence of BMP7 at indicated dose. Cells were pulsed with EdU for 4 hours before fixation. Mean∓S.D. Significant p-values (Vehicle˜BMP7 1.56 ng/mL: 0.04). (*p<0.05 by Welch's One-Tailed T-test, n=2)
FIG. 6A) Bar graph of % EdU+ mouse myoblast cells compared to vehicle. Mouse myoblast were cultured 48h in the presence of indicated factors, followed by a 2 hour EdU pulse prior to fixation. Mean∓S.D. Significant p-values (FM˜BMP7: 0.008 ug/mL: 3.17E-02, FM˜Leucine: 300 uM BMP7: 0.008 ug/mL: 2.77E-03, FM˜Leucine: 100 uM BMP7: 0.008 ug/mL: 3.72E-05, FM˜Leucine: 900 uM BMP7: 0.008 ug/mL: 2.52E-03). (*p<0.05 by One-Way ANOVA Tukey Honest Significant Difference, n=2-6)
FIG. 7A: Bar graph of % EdU+ mouse myoblast cells compared to vehicle. Mouse myoblast were cultured 48h in the presence of indicated factors. EdU pulse and fixation. Mean∓S.D. (*p<0.05 by Student's One-Tailed T-Test of increased activity, n=2-6)
FIG. 10A) The suspension CHO cells were transiently transfected with either the empty control plasmid or the FGF17-hFcm encoding plasmid. After four days, the culture supernatants were collected and added into the culture of mouse myoblast cells for 48 hours, followed by a 2 hour EdU pulse prior to fixation. […] FIG. 10B) The suspension CHO cells were transiently transfected with the FGF17-hFcm encoding plasmid. After four days, the culture supernatants were collected and FGF17-hFcm was affinity-purified by Protein A membrane column. The purified FGF17-hFcm was added into the culture of mouse myoblast cells for 48 hours, followed by a 2 hour EdU pulse and fixation.
(§2) FIG. 11A: SDS-PAGE of culture supernatants from CHO cells transiently transfected with FGF17-hFcm or its mutants encoding plasmids (FGF17d181-216-hFcm, FGF17d204-216-hFcm, FGF17R204QK207Q-hFcm). The expressed FGF17-hFcm proteins and the mutant proteins were indicated by the white arrowheads. FIG. 11B) The culture supernatants from CHO cells transiently transfected with different FGF17 encoding plasmids were added into the culture of mouse myoblast cells for 48 hours followed by 2 hour EdU pulse and fixation.
as §2, with “12A)” for “11A:”, “(FGF17d197-216-hFcm, FGF17K191AK193AS200A-hFcm).” for “(FGF17d181-216-hFcm, FGF17d204-216-hFcm, FGF17R204QK207Q-hFcm).”, “12B)” for “11B)”, “hours,” for “hours”
FIG. 14A: Bar graph of % EdU+ mouse myoblast cells compared to vehicle. Myoblast were cultured 48h in the presence of indicated factors. […] Mean∓S.D. Table quantitation of % EdU and p-values (*p<0.05 by One-Way ANOVA Tukey Honest Significant Difference, n=2-6)
FIG. 15A: Bar graph of % EdU+ mouse myoblast cells compared to vehicle. […] Mean∓S.D. Table quantitation of % EdU and p-values shown. […]

CCCC(=O)[O-].[Na+] [NaBut, sodium butyrate]
Fusion Index (nuclei/myotube) (Mouse myoblasts; 0.1 nM): 8.44 nuclei/myotube
Fusion Index (nuclei/myotube) (Mouse myoblasts; 1 nM): 31.60 nuclei/myotube
Fusion Index (nuclei/myotube) (Mouse myoblasts; 10 nM): 14.00 nuclei/myotube
% eMyHC (human myoblast cells [1]; NaBut 1 nM): 2.321%
% eMyHC (human myoblast cells [1]; NaBut 10 nM): 6.199%
% eMyHC (human myoblast cells [1]; NaBut 100 nM): 8.341%
MYF5 expression fold change compared to FM (DM1 human myoblast): 1.128
MYOD1 expression fold change compared to FM (DM1 human myoblast): 1.095
MYOG expression fold change compared to FM (DM1 human myoblast): 1.020

IGF2-hFc4: IGF2 fused to hFc4, human IgG4 Fc with S228P point mutation
% MyHC (human myoblast cells [2]): 6.901%

Hyaluronic Acid [Hyaluronic Acid (HA)]
Effect on BMP7 mitogenic activity (% EdU+) (mouse myoblast cells; hyaluronic acid with BMP7, 48h): Enhances BMP7 Mitogenic Activity

CC(C)C[C@H](N)C(=O)O [Leucine]
Effect on BMP7 mitogenic activity (% EdU+) (mouse myoblast cells; Leucine 100, 300, 900 uM with BMP7 0.008 ug/mL, 48h): Enhances BMP7 Mitogenic Activity

Heparin [reference compound]
% EdU (mouse myoblast cells; Heparin 0.5 ug/mL, 48h): 1.77%
% EdU (mouse myoblast cells; Heparin 1 ug/mL, 48h): 3.01%
% EdU (mouse myoblast cells; Heparin 2 ug/mL, 48h): 2.85%
